Results on eight compounds are retold here after paper PMC10341658, “In Silico Screening and Anticancer-Apoptotic Evaluation of Newly Synthesized Thienopyrimidine/Sulfonamide Hybrids” (International Journal of Molecular Sciences, 2023).

The subject of one experiment is MCF-7. As to the kind of experiment: MTT anti-proliferative assay, MCF-7. The settings on record: for IC50: 72 h of exposure, MTT, mean ± S.D. of three observations; for selectivity index (SI) MCF-7: IC50 MCF 10A/IC50 MCF-7, 72 h of exposure. It is filed as cell-based, human. How it is done: (§1) The cytotoxic effect of the synthesized compounds was estimated against human breast cancer cell lines (MCF-7 and MDA-MB231).
(§2) MTT (3-[4,5-dimethylthiazol-2-yl]-2,5 diphenyltetrazolium bromide) assay was used to study the anticancer activity of all derivatives against breast cancer cells MCF-7and MDAMB231 (obtained from ATCC, Manassas, VA, USA). […] Briefly, cells plated onto 96-well plates (5000 cells/well) were allowed to adhere and form a semi-confluent monolayer. After 24 h, the cells were treated with different concentrations of derivatives (0–100 µM) for 72 h. After the exposure, cytotoxicity was assessed following the MTT Assay Kit protocol (Abcam, Cambridge, UK) as reported earlier.

Experiment [1] concerns MCF-10A (Non-Tumorigenic Cells). Kind of experiment: MTT cytotoxicity on non-tumorigenic MCF-10A cells. Type of experiment: cell-based. The settings on record: Homo sapiens, 72 h of exposure, mean ± S.D. of three observations. As for the experimental part:
MTT (3-[4,5-dimethylthiazol-2-yl]-2,5 diphenyltetrazolium bromide) assay was used to study the anticancer activity of all derivatives against breast cancer cells MCF-7and MDAMB231 (obtained from ATCC, Manassas, VA, USA). […] Briefly, cells plated onto 96-well plates (5000 cells/well) were allowed to adhere and form a semi-confluent monolayer. […] After the exposure, cytotoxicity was assessed following the MTT Assay Kit protocol (Abcam, Cambridge, UK) as reported earlier.
The selectivity ratio in non-cancerous cells (MCF10A) versus cancer cells (MCF-7 and MDAmb231) was calculated as reported in [26, 27] using the following equation: SI = IC50 of normal cells/IC50 of cancer cells.

In another experiment the test system is MDA-MB-231. As to the kind of experiment: MTT anti-proliferative assay, MDA-MB-231. Type of experiment: cell-based, human. The settings on record: for IC50: Homo sapiens, MDA-MB-231, 72 h of exposure, MTT, mean ± S.D. of three observations; for selectivity index (SI) MDA-MB231: IC50 MCF 10A/IC50 MDA-MB231, 72 h of exposure. As for the experimental part: as §1, §2
(Formazan colour is commonly taken as a measure of viable cells.)

In a further experiment the target is T1, FGFR-1 (Homo sapiens, UniProt P11362).
T1 construct: host or cells: MDA-MB-231
As to the kind of experiment: FGFR-1 inhibitory activity (FGFR-1 ELISA Kit, MDA-MB-231 cell lysates). Type of experiment: biochemical. How it is done:
To determine basal FGFR-1 activity, a FGFR-1 ELISA Kit was used according to the protocol of the manufacturer (G-Biosciences, Saint Louis, MO, USA). […] After 90 min of incubation at 37 °C, 100 μL Biotinylated Detection Antibody was added and incubated for 60 min. After washing twice each with washing buffer, 100 μL ELISA Detection Reagent was added to each well and incubated for 30 min. After washing, 90 μL of Detection Substrate (TMB) was added to visualize the enzymatic reaction. TMB was catalyzed to produce a blue color that changed into yellow after adding 50 μL of acidic stop solution. The density of yellow is directly proportional to the concentration of FGFR-1 captured on the plate using a Varioskan TM LUX multimode microplate reader (Thermo Scientific, Waltham, MA, USA).
Background: In an ELISA, binding on a coated surface is turned into a signal by an enzyme label.

In a further experiment the test system is Caspase-3. As to the kind of experiment: Caspase-3 colorimetric activity assay (Ac-DEVD-pNA) in MDA-MB-231 cells. The settings on record: predetermined IC50 of compound, 24 h. Type of experiment: cell-based, human. How it is done: To further explore the cytotoxicity of the prepared hybrids, their influence on Caspase-3 activity was examined. MDA-MB-231 cells were incubated with the predetermined IC50s of tested compounds for a duration of 24 h.
Caspase-3 activity was assessed with a colorimetric assay based on the hydrolysis of acetyl–Asp–Glu–Val–Asp p-nitroanilide (Ac-DEVD-pNA) by Caspase-3 and releasing p-nitroaniline (pNA). MDA-MB-231 cell lysates (100 ng/mL) were diluted and subjected to analysis via Caspase-3 Colorimetric Assay Kit (Sigma-Aldrich, Saint Louis, MO, USA) based on the protocol of the manufacturer. The reaction for color development was held at 37 °C for 2 h, and the value of OD405 was determined using a Varioskan TM LUX multimode microplate reader (Thermo Scientific, Waltham, MA, USA). Each caspase-3 activity was expressed as a value of OD405.

The next experiment deals with MDA-MB-231 cells. Kind of experiment: Annexin V-FITC/PI flow cytometric apoptosis analysis. Type of experiment: cell-based, human. The settings on record: MDA-MB-231, Annexin V-FITC/PI, predetermined IC50. How it is done: Apoptosis and necrosis are two routes that make up the overall division of the cell death pathway carried out by anticancer agents. A double labeling flow cytometry assay using Annexin V-FITC/propidium iodide was performed to identify which mechanism, necrosis, or apoptosis is responsible for cell death.
Apoptosis was detected after 48 h of cell culture using V-FITC apoptosis detection kit (BD Pharmingen TM, Franklin Lakes, NJ, USA). […] After treatment, cells were collected, washed with ice-cold PBS and centrifuged at 200× g for 5 min. The cell pellet was suspended in 200 μL of annexin V-FITC/PI solution for 15 min in the dark. The stained and Annexine V propidium iodide negative cells were evaluated via CytoFLEX flow cytometry (Beckman Coulter, Brea, CA, USA). Ten thousand cells (gated events) were captured for each sample. The mean fluorescence intensity was analyzed with Cytoexpert (Beckman Coulter).
On the technique in general: In flow cytometry, cells or beads pass a laser one at a time.

T1 sequence (P11362 22-822): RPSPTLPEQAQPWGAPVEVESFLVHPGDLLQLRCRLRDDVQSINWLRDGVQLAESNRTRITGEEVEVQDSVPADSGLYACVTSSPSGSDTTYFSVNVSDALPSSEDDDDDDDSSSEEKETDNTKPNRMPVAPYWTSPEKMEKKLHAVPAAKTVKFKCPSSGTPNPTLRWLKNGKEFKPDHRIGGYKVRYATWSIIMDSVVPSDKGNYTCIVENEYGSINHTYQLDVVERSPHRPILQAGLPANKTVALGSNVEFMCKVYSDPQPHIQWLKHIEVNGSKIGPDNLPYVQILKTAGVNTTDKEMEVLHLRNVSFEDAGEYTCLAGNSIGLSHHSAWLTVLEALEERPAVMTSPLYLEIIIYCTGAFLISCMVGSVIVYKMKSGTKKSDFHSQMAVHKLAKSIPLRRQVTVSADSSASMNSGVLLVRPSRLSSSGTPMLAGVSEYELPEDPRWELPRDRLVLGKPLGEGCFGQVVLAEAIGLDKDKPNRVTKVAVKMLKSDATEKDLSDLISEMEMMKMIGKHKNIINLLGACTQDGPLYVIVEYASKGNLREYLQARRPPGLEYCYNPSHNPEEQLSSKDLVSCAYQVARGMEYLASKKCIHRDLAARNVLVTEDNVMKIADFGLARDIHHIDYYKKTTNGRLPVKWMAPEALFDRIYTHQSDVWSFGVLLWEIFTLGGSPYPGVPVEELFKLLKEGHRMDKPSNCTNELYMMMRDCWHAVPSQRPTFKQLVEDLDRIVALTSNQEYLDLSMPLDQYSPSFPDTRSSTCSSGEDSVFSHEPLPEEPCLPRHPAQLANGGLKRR

As for `CCOC(=O)c1sc2ncnc(Nc3ccc(S(=O)(=O)Nc4cc(C)on4)cc3)c2c1C` [Compound 4biii, Ethyl-5-methyl-4-((4-(N-(5-methylisoxazol-3-yl)sulfamoyl)phenyl)amino) thieno[2,3-d]pyrimidine-6-carboxylate], the half-inhibitory concentration (IC50) (commonly the concentration that gives 50% inhibition) with MCF-7 is 9.54 ± 3.1 µM; with MCF-7 (Homo sapiens, MCF7, 72 h), below 10 µM; in experiment [1], 244.5 ± 1.9 µM; in the experiment on MDA-MB-231, 17.6 ± 2.3 µM; against FGFR-1, 168 ± 8.3 µM. For the same compound, in the experiment with MCF-7, the “selectivity index (SI) MCF-7” value stood at 25.62. Further, in the experiment on MDA-MB-231, the “selectivity index (SI) MDA-MB231” value is on record as 13.86.

For the compound `N=C(N)NS(=O)(=O)c1ccc(Nc2ncnc3sc4c(c23)CCCC4)cc1` [Compound 4ai, N-carbamimidoyl-4-((5,6,7,8-tetrahydrobenzo[4,5]thieno[2,3-d]pyrimidin-4-yl)amino) benzenesulfonamide], the concentration for half-maximal inhibition (IC50) with MCF-7 (Homo sapiens, MCF7, 72 h) stood at 35.8 ± 1.2 µM; in experiment [1], 458 ± 12.3 µM; in the experiment on MDA-MB-231, 40.2 ± 2.7 µM; against FGFR-1 it was 132 ± 4.3 µM. Further, the “selectivity index (SI) MCF-7” value in the experiment with MCF-7 is 12.79. Further, the “selectivity index (SI) MDA-MB231” value in the experiment with MDA-MB-231 stood at 11.40.

For `CCOC(=O)c1sc2ncnc(Nc3ccc(S(=O)(=O)NC(=N)N)cc3)c2c1C` [Compound 4bi, Ethyl-4-((4-(N-carbamimidoylsulfamoyl)phenyl)amino)-5-methylthieno[2,3-d]pyrimidine-6-carboxylate], the IC50 in the experiment on MCF-7 is 6.17 ± 1.3 µM; in the experiment on MCF-7 (Homo sapiens, MCF7, 72 h), below 10 µM; in experiment [1] it was 277 ± 7.9 µM; in the experiment on MDA-MB-231 it was 8.68 ± 4.3 µM; at FGFR-1, 326 ± 7.4 µM. Also, the “selectivity index (SI) MCF-7” value in the experiment on MCF-7 was determined as 44.86. For the same compound, the “selectivity index (SI) MDA-MB231” value with MDA-MB-231 came out at 31.90.

Take `Cc1cc(NS(=O)(=O)c2ccc(Nc3ncnc4sc5c(c34)CCCC5)cc2)no1` [Compound 4aiii, N-(5-methylisoxazol-3-yl)-4-((5,6,7,8-tetrahydrobenzo[4,5]thieno[2,3-d]pyrimidin-4-yl)amino)benzenesulfonamide]: the IC50 with MCF-7 (Homo sapiens, MCF7, 72 h) turned out to be 67.1 ± 15.7 µM; in experiment [1] it was 88.5 ± 10.1 µM; in the experiment with MDA-MB-231 it was 68.3 ± 4.6 µM; against FGFR-1 it was 159 ± 5.3 µM. Besides, the “selectivity index (SI) MCF-7” value in the experiment with MCF-7 is 1.32. The “selectivity index (SI) MDA-MB231” value in the experiment on MDA-MB-231 is given as 1.29.

For `COc1cccc2c1C(=O)c1c(O)c3c(c(O)c1C2=O)C[C@@](O)(C(=O)CO)C[C@@H]3O[C@H]1C[C@H](N)[C@H](O)[C@H](C)O1` [Doxorubicin, reference compound], the IC50 worked out at 1.6 ± 2.2 µM with MCF-7 (Homo sapiens, MCF7, 72 h) and 2.2 ± 0.3 µM in the experiment with MDA-MB-231.

Consider `CCOC(=O)c1sc2ncnc(Cl)c2c1C` [Compound 3b], for which the concentration for half-maximal inhibition (IC50) with MCF-7 is 9.74 ± 0.13 µM; in the experiment on MCF-7 (Homo sapiens, MCF7, 72 h) it was below 10 µM; in experiment [1] it was 265 ± 4.2 µM; in the experiment on MDA-MB-231, 4.45 ± 0.31 µM; at FGFR-1 it was 179 ± 5.6 µM. Besides, the “selectivity index (SI) MCF-7” value in the experiment with MCF-7 came to 27.20. Moreover, the “Caspase-3 activity fold change vs control cells” value in the experiment on Caspase-3 came to 2.3 fold. In addition, the “increase of population of late apoptotic cells” value with MDA-MB-231 cells is recorded as 4.8 fold. Besides, in the experiment with MDA-MB-231 cells, the “increase of population of necrotic cells” value turned out to be 5.5 fold. Moreover, in the experiment with MDA-MB-231, the “selectivity index (SI) MDA-MB231” value was found to be 59.45.

Consider `O=S(=O)(Nc1ncccn1)c1ccc(Nc2ncnc3sc4c(c23)CCCC4)cc1` [Compound 4aii, N-(pyrimidin-2-yl)-4-((5,6,7,8-tetrahydrobenzo[4,5]thieno[2,3-d]pyrimidin-4-yl)amino)benzenesulfonamide], for which the 50% inhibitory concentration (IC50) was 22.3 ± 3.1 µM with MCF-7 (Homo sapiens, MCF7, 72 h); above 1000 µM in experiment [1]; 20.2 ± 1.5 µM in the experiment on MDA-MB-231; 119 ± 5.6 µM against FGFR-1.

For the compound `CCOC(=O)c1sc2ncnc(Nc3ccc(S(=O)(=O)Nc4ncccn4)cc3)c2c1C` [Compound 4bii, Ethyl-5-methyl-4-((4-(N-(pyrimidin-2-yl)sulfamoyl)phenyl)amino)thieno[2,3-d]pyrimidine-6-carboxylate], the half-maximal inhibitory concentration (IC50) amounted to 14 ± 8.2 µM in the experiment with MCF-7 (Homo sapiens, MCF7, 72 h); 230 ± 24.1 µM in experiment [1]; 15.57 ± 0.1 µM in the experiment with MDA-MB-231; 289 ± 12 µM on FGFR-1. Besides, in the experiment with MCF-7, the “selectivity index (SI) MCF-7” value turned out to be 16.45. The “selectivity index (SI) MDA-MB231” value with MDA-MB-231 was 14.77.
